The results in this text go back to US20180353501A1 (Arvinas, Inc., priority 2017, published 2018).

For one assay, the target named is T1, p38δ (Homo sapiens, UniProt O15264).
T1 construct: endogenous in cells; host or cells: MDA-MB-231 (intact cells for degradation; cleared cell lysate for CETSA)
T1 sequence (O15264 1-365): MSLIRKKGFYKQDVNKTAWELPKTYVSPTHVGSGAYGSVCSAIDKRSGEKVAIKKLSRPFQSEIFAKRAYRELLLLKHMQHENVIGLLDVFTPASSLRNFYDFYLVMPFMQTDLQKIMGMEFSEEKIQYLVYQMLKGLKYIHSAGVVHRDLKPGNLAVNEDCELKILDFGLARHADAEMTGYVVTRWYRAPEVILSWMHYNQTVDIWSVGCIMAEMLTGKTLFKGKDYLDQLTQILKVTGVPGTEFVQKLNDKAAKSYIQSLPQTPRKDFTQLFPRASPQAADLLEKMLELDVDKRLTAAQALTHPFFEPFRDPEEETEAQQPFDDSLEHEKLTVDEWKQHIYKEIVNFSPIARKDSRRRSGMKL
The assay can be described thus: Cellular thermal shift assay (CETSA), MDA-MB-231 cell lysate. Type of assay: cell-based. Conditions: 100 μM, 30 minutes, 51-55° C., vs DMSO. The method, then: FIGS. 17A and 17B. […] (A) Cellular thermal shift assay (CETSA) was conducted in MDA-MB-231 cells as a means to monitor cellular target engagement. Cell lysate was incubated with either vehicle (DMSO), exemplary compound 50 (100 μM), or exemplary compound 46 (100 μM) for 30 minutes prior to melting at the indicated temperatures. Assay was performed in duplicate and western blots of p38δ and α-tubulin (negative control) are shown. (B) Raw band intensities from (A) were measured, averaged, and reported (with SD) with increasing temperature (51-55° C.) from left-to-right. Top: p38δ CETSA analysis. […] Bottom: α-tubulin CETSA analysis.
(§1) To further assess these findings, a more biologically-relevant context for measuring ternary complex formation was used. […] Thus, whether PROTAC-induced PPIs could be monitored in a complex cellular environment using CETSA was examined. […]
CETSA protocol was adapted from (Mateus A, Maatta T A, & Savitski M M (2016) Thermal proteome profiling: unbiased assessment of protein state through heat-induced stability changes. Proteome Sci 15:13). […] After cooling, samples were spun down for 20 minutes (14,000×g at 4° C.) and the supernatant (soluble fraction) was analyzed by SDS-PAGE and immunoblotted for p38δ and alpha-tubulin (negative control).

For the next assay, the target named is T2, endogenous p38δ (Homo sapiens, UniProt O15264+P40337).
T2 construct: GST-VBC was immobilized on glutathione sepharose beads and incubated with MDA-MB-231 whole cell lysate (WCL); endogenous in cells; host or cells: MDA-MB-231 whole cell lysate (p38δ); GST-VBC bait made in E. coli BL21(DE3)
The experiment in a line: Ternary complex pull-down from MDA-MB-231 whole cell lysate with GST-VBC bait. Type of assay: binding.
From the text: FIGS. 15A, 15B, and 15C. Differential p38δ:PROTAC:VHL ternary complex affinities result in distinct cellular ubiquitination outcomes. (A) Both exemplary compound 50 and 46 pull-down p38δ in vitro, however compound 46 maintains ternary complex at lower concentrations. As in FIG. 14A, GST-tagged VBC was used as a bait to trap recombinant p38δ in the presence of vehicle (DMSO) or the indicated concentrations of compound 50 or 46. The rightmost lane represents a 1:25 dilution of initial input protein used in each pull-down. […] GST-VBC was immobilized on glutathione sepharose beads and incubated with MDA-MB-231 whole cell lysate (WCL) in the presence of vehicle (DMSO) or the indicated concentrations of compound 50 or 46. Beads were washed and “trapped” proteins (i.e. those that engage in a ternary complex) were eluted with SDS sample buffer and separated by SDS-PAGE. Samples were assessed by western blot and CUL2 and α-tubulin serve as positive and negative GST-VBC immunoprecipitation controls, respectively. […] FLAGimmunoprecipitated lysates were separated by SDS-PAGE and assessed via western blots detecting HA (Ub). […]
as §1

T2 sequence (P40337 whole entry, one chain of several): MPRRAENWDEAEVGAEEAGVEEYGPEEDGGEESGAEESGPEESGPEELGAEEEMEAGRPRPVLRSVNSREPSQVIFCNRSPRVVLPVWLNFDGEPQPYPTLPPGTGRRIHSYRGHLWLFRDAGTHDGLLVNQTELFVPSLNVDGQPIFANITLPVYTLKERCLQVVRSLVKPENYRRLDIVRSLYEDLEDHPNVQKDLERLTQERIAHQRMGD
T2 sequence (Q15370 whole entry partner, one chain of several): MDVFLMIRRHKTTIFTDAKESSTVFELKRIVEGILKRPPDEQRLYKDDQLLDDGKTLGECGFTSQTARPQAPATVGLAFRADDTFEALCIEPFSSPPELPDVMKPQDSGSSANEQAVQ
T2 sequence (Q15369 whole entry partner, one chain of several): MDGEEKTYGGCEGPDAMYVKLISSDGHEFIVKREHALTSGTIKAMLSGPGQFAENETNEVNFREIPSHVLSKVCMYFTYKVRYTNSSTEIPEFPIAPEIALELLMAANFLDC

Consider `COc1cc2c(Oc3ccc(NC(=O)C4(C(=O)Nc5ccc(F)cc5)CC4)cc3F)ccnc2cc1OCCOCCOCCOc1cc(-c2scnc2C)ccc1CNC(=O)[C@@H]1C[C@@H](O)CN1C(=O)[C@H](C(C)C)N1Cc2ccccc2C1=O` [compound 46], for which the “thermal shift in the p38δ melting profile” value on p38δ is “more pronounced at each melting temperature tested”. Besides, the “enrichment of endogenous p38δ from whole cell lysate on GST-VBC bait” value on endogenous p38δ is given as “strongly enrich for endogenous p38δ in a dose-dependent manner”.

Take `COc1cc2c(Oc3ccc(NC(=O)C4(C(=O)Nc5ccc(F)cc5)CC4)cc3F)ccnc2cc1OCCCCOCCCCOCC(=O)N[C@H](C(=O)N1C[C@H](O)C[C@H]1C(=O)NCc1ccc(-c2scnc2C)cc1)C(C)(C)C` [compound 50, N-(3-fluoro-4-((7-(4-(4-(2-(((S)-1-((2S,4R)-4-hydroxy-2-((4-(4-methylthiazol-5-yl)benzyl)carbamoyl)pyrrolidin-1-yl)-3,3-dimethyl-1-oxobutan-2-yl)amino)-2-oxoethoxy)butoxy)buto-xy)-6-methoxyquinolin-4-yl)oxy)phenyl)-N-(4-fluorophenyl)cyclopropane-1,1-dicarboxa-mide]: the “thermal shift in the p38δ melting profile” value on p38δ is “small, but statistically-significant (p=0.0121) thermal shift”. Moreover, the “enrichment of endogenous p38δ from whole cell lysate on GST-VBC bait” value on endogenous p38δ is listed as “greatly reduced”.
